We go through five molecules from article PMC8224775, “Five Tetramic Acid Derivatives Isolated from the Iranian Fungus Colpoma quercinum CCTU A372” (Biomolecules, 2021).

A word on the IC50: it is the concentration that inhibits the measured activity by half.

For the test, the system named is mouse fibroblast L-929. The test can be described thus: 5-day MTT cytotoxicity assay. The class given is cell-based. The note with it: L-929, 5-day MTT assay. Here is the method: Cytotoxicity of compounds 1‒5 was initially determined against two cancer cell lines (mouse fibroblasts L-929 and human endocervical adenocarcinoma KB-3.1) by using a 5-day MTT assay according to an established procedure.
In 96-well flat-bottom microtiter plates, cell lines with serial dilution of the test compounds (final range: 37 to 0.6 × 10^−3 µg/mL) were incubated for five days. After five days, the cells were dyed using 3-(4,5-dimethyl-2-thiazolyl)-2,5-diphenyl-2H-tetrazolium bromide (MTT), which is only converted to its purple formazan derivative by living cells. The half-maximum inhibitory concentration (IC50 in µM) was calculated via the colorimetric method in a microplate reader using absorption at 595 nm. In addition, when an inhibition with an IC50 < 50 µM was observed, other cell lines were subjected to the test compounds to evaluate their further cytotoxicity: PC-3 (human prostate adenocarcinoma), SK-OV-3 (human ovary adenocarcinoma), MCF-7 (human breast adenocarcinoma), A-431 (human squamous carcinoma), and A549 (human lung carcinoma). A detailed procedure, including the colorimetric method to determine the cell viability, can be found in the SI.
Protocol: Cytotoxicity Assay
The assay was co nducted in 9 6-well flat -botto m microtiter plates using the parameters summarised in T able S2 and as described in [S2]. Cell l ines L-929 and KB-3.1 were incubated at 37 °C under 10 % CO2 in Gibco™ DMEM medium (T her mo Fisher Scientific, Waltham, M A, USA) supplemented with 10 % FBS. A microtiter plate was filled wit h 120 μ L o f this suspensio n (50,000/mL) in each well. Seperatel y, a nother microti ter plate wa s filled wit h 100 μL of gro wth medium in each well. Then, 50 μ L of the test compound solutions (1 mg/mL) were given to wells of the first column in two replicates (one compound per row). Cells without additives and MeOH were used as nega tive controls. Starting from the first column, 50 μ L of the solutions were gradually transferred to the next column, the contents thoroughly mixed, and 50 μL transferred to the following column. This created a serial dilution of the test compounds ranging from 333 μ g/mL to 1.9×10-3 μg/ mL. T he re mai ni ng 50 μ L after column twelve were discarded. From this microtiter plate, 60 μ L of the solutions fro m 111 μ g/mL to 1.9×10-3 μg/mL we r e give n to t he firs t p late co ntai ni ng 1 2 0 μ L of the cell suspensions (i.e. the highest co ncentration 333 μ g/ mL wa s no t used). T his resul ted in fi nal compo und concentratio ns rangi ng fro m 37 μ g/mL to 0.6×10-3 μg/ mL. After 5 days o f incubatio n under the aforementioned incubatio n conditions, the half maximu m inhibitory co ncentrations (IC50) were deter mined using a colorimetric tetrazolium d ye MT T assa y [S3]. For this, 20 μ L of a 5 mg/mL solution of 3-(4,5-dimethyl-2 -thiazolyl) -2,5-diphenyl-2H-tetrazolium br omide (MTT) were added to each well and incubated for two hours at 37 °C. T hen, the microtiter plate was ce ntrifuged (3,000 rpm, 5 min) and the supernatant removed by holding the plate upside-down and gentle shaking. Afterwards, the wells were washed using 100 μ L of phosphate buffered saline (PBS). T he plate was a gain ce ntrifuged a nd the supernata nt re mo ved as described before.
T hen, 1 0 0 μ L of an isopropanol:HCl solution (1L isopropanol+4 mL HCl 37 % w/v) were added to the wells. After incubating for 10 min at ambient temperature, the absorption of the wells at 595 nm was measured with an Infinite® 200 Pro microplate reader (TECAN, Männedorf, Schweiz). The absorption values of the cells without additives were averaged and set to 100 % cell viability. Then, the means of absorption of the two compound replicates were set in relation to the blank media. T hese percentage values were plotted against the concentratio n range (37 μ g/mL to 0.6×10−3 μg/ mL). T he IC50 value was r ead fro m the plot (in μ g/ mL) a nd the uni ts conversed […]
to μM. […]
A general note: Tetrazolium dyes change colour on reduction, which living cells bring about.

Like-named read-outs stand apart in the source and are kept apart here.

Turning to `CC1=CC2CC(C)CCC2C2(C)C(=O)OC(C(=O)O)C(C)C12` (centres unmarked) [compound 3, Colposetin C], the IC50 result was “not active”.
As to `CCC(C(=O)O)C1C(C)=CC2CC(C)CCC2C1(C)C(O)=C1C(=O)C(C)N(C)C1=O` (centres unmarked) [compound 2, Colposetin B], the IC50 (Mus musculus, L929, 120 h, read-out: IC50) amounted to 57.5 µM.
As to `CC(C=CCC(C)CCC=C(C)C(=O)C1=C(O)C(C)N(C)C1=O)=CC(C)C(O)C(=O)O` (centres unmarked) [compound 4, Colpomenoic acid A], the half-inhibitory concentration (IC50) result is reported as “not active”.
The same measure, in the same setting: with `CC(C=CCC(C)C=CC=C(C)C(=O)C1=C(O)C(C)N(C)C1=O)=CC(C)C(O)C(=O)O` (centres unmarked) [compound 5, Colpomenoic acid B] the entry was “not active”; with `CC(=O)OC(C(=O)O)C(C)C1C(C)=CC2CC(C)CCC2C1(C)C(O)=C1C(=O)C(C)N(C)C1=O` (centres unmarked) [compound 1, Colposetin A], “not active”.
